Assay results reported in the supplement of paper PMC10307832.

Assays:
Test in all cases: relative viability (nuclei count vs DMSO), 5 days (fraction); higher = more cells survive
[1] = system: HCC-44
Outline: (§1)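 Relative viability divides the nuclei count in treated wells by that in vehicle wells. Lung cancer cell lines were seeded in 1536-well plates, dosed by pin tool the next day, and fixed and stained after 5 days in one step with final 0.05% Triton X-100, 1% formaldehyde and 1 ug/ml Hoechst. Dosing was a single drug or a fixed anchor-drug dose plus five library-drug doses (not always all listed) in √10 steps, and values are medians of duplicate plates imaged at 4×.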

[2] = system: NCI-H1650
Outline: as §1

[3] = system: NCI-H1944
Outline: as §1

[4] = system: PC-3 [JPC-3]
Outline: as §1

[5] = system: H3255
Outline: as §1

[6] = system: NCI-H23
Outline: as §1

[7] = system: COR-L23
Outline: as §1

[8] = system: PC-14
Outline: as §1

[9] = system: NCI-H2347
Outline: as §1

[10] = system: SW 900
Outline: as §1

[11] = system: LK-2
Outline: as §1

In the case of CC1(C)CCC(c2ccc(Cl)cc2)=C(CN2CCN(c3ccc(C(=O)NS(=O)(=O)c4ccc(N[C@H](CCN5CCOCC5)CSc5ccccc5)c(S(=O)(=O)C(F)(F)F)c4)cc3)CC2)C1 [Navitoclax] + Nc1nc2[nH]cc(CCc3ccc(C(=O)N[C@@H](CCC(=O)O)C(=O)O)cc3)c2c(=O)[nH]1 [Pemetrexed] (partner 0.2 µM), the relative viability ([1]; first compound 0.005 µM) is reported as 0.633, the relative viability ([1]; first compound 0.01581 µM) is reported as 0.65 and the relative viability ([1]; first compound 0.05 µM) is reported as 0.625. It also gave a relative viability ([1]; first compound 0.1581 µM) of 0.603, a relative viability ([1]; first compound 0.5 µM) of 0.558 and a relative viability ([2]; first compound 0.005 µM) of 0.365. It also gave a relative viability ([2]; first compound 0.01581 µM) of 0.412, a relative viability ([2]; first compound 0.05 µM) of 0.298 and a relative viability ([2]; first compound 0.1581 µM) of 0.347. For the same compound, the relative viability ([2]; first compound 0.5 µM) was 0.334, the relative viability ([3]; first compound 0.005 µM) was 0.611 and the relative viability ([3]; first compound 0.01581 µM) was 0.623. The relative viability ([3]; first compound 0.1581 µM) was 0.597, the relative viability ([3]; first compound 0.5 µM) was 0.534 and the relative viability ([4]; first compound 0.005 µM) was 1.12. The relative viability ([4]; first compound 0.01581 µM) was 1.26, the relative viability ([4]; first compound 0.05 µM) was 0.974 and the relative viability ([4]; first compound 0.1581 µM) was 1.02. It also gave a relative viability ([4]; first compound 0.5 µM) of 0.754, a relative viability ([5]; first compound 0.005 µM) of 0.664 and a relative viability ([5]; first compound 0.01581 µM) of 0.648. For the same compound, the relative viability ([5]; first compound 0.05 µM) was 0.571, the relative viability ([5]; first compound 0.1581 µM) was 0.581 and the relative viability ([5]; first compound 0.5 µM) was 0.545. For the same compound, the relative viability ([6]; first compound 0.005 µM) was 0.594, the relative viability ([6]; first compound 0.01581 µM) was 0.665 and the relative viability ([6]; first compound 0.05 µM) was 0.707. For the same compound, the relative viability ([6]; first compound 0.1581 µM) was 0.603, the relative viability ([6]; first compound 0.5 µM) was 0.645 and the relative viability ([7]; first compound 0.005 µM) was 0.208. It also gave a relative viability ([7]; first compound 0.01581 µM) of 0.188, a relative viability ([7]; first compound 0.05 µM) of 0.221 and a relative viability ([7]; first compound 0.1581 µM) of 0.179. It also gave a relative viability ([7]; first compound 0.5 µM) of 0.201, a relative viability ([8]; first compound 0.005 µM) of 0.133 and a relative viability ([8]; first compound 0.01581 µM) of 0.118. The relative viability ([8]; first compound 0.05 µM) was 0.136, the relative viability ([8]; first compound 0.1581 µM) was 0.108 and the relative viability ([8]; first compound 0.5 µM) was 0.105. The relative viability ([9]; first compound 0.005 µM) was 0.443, the relative viability ([9]; first compound 0.01581 µM) was 0.439 and the relative viability ([9]; first compound 0.05 µM) was 0.411. For the same compound, the relative viability ([9]; first compound 0.1581 µM) was 0.427, the relative viability ([9]; first compound 0.5 µM) was 0.437 and the relative viability ([10]; first compound 0.005 µM) was 0.471. For the same compound, the relative viability ([10]; first compound 0.01581 µM) was 0.476, the relative viability ([10]; first compound 0.1581 µM) was 0.452 and the relative viability ([10]; first compound 0.5 µM) was 0.441. The relative viability ([11]; first compound 0.005 µM) was 0.35, the relative viability ([11]; first compound 0.01581 µM) was 0.244 and the relative viability ([11]; first compound 0.05 µM) was 0.281. It also gave a relative viability ([11]; first compound 0.1581 µM) of 0.332 and a relative viability ([11]; first compound 0.5 µM) of 0.316.
